For one assay, the target named is T1, ABCB4 WT (Homo sapiens, UniProt P21439).
T1 construct: expressed in transfected cells
Description: ABCB4 WT assay: HiBit protein expression. It is filed as cell-based. Conditions: HEK-293 cells stably expressing HiBit-tagged ABCB4 WT; 24 h treatment; top concentration 30 μM; read-out: ABCB4 WT EC50, Emax. In outline: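 HEK-293 cells stably expressing HiBit-tagged human ABCB4 WT, treated 24 h at 37 °C with 11-dose 3-fold dilutions, top final 30 μM in 0.3% DMSO. HiBit lytic reagent luminescence read after 1 h at 25 °C; Emax and EC50 derived.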
(In general: The HiBiT peptide binds its large partner to form an active luciferase.)

A further assay concerns the target T2, ABCD2 WT (Homo sapiens, UniProt Q9UBJ2).
T2 construct: expressed in transfected cells
T2 sequence (Q9UBJ2 1-740): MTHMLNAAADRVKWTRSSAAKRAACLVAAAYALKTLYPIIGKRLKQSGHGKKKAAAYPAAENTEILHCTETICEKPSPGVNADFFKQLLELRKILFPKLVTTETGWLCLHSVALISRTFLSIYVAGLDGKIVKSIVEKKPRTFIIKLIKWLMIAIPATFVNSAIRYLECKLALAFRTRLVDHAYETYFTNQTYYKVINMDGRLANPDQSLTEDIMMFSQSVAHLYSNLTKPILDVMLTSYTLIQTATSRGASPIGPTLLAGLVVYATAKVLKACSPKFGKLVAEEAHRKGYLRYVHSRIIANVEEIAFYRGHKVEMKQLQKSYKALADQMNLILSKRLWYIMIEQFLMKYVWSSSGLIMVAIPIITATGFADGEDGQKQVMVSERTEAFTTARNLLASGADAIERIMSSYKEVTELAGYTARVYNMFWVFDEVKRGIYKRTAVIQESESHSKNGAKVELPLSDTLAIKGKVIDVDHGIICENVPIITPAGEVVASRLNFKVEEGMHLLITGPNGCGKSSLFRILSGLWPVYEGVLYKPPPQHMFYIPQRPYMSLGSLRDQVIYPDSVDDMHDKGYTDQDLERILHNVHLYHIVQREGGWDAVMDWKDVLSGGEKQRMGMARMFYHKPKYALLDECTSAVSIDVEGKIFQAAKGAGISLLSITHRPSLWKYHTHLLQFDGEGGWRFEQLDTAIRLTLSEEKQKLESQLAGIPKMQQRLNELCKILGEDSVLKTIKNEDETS
Briefly: D2 correction dose-response assay: ABCD2 WT HiBit protein expression. It is filed as cell-based. Conditions: HEK-293/ABCD2 WT cells, 24 hours treatment, HiBit luminescence; class combines EC50 and Mean MaxAct (fold); read-out: ABCD2 WT EC50, Emax. In outline:
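HEK-293 cells stably expressing HiBit-tagged human ABCD2 WT were treated with 11 doses (3-fold dilutions, top final 30 μM, 0.3% DMSO) for 24 h at 37 °C. Expression was measured by HiBit lytic luminescence after 1 h at 25 °C, giving EC50 and Emax.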

The term EC50 denotes the concentration at which the effect is half-maximal.

T1 sequence (P21439 whole entry): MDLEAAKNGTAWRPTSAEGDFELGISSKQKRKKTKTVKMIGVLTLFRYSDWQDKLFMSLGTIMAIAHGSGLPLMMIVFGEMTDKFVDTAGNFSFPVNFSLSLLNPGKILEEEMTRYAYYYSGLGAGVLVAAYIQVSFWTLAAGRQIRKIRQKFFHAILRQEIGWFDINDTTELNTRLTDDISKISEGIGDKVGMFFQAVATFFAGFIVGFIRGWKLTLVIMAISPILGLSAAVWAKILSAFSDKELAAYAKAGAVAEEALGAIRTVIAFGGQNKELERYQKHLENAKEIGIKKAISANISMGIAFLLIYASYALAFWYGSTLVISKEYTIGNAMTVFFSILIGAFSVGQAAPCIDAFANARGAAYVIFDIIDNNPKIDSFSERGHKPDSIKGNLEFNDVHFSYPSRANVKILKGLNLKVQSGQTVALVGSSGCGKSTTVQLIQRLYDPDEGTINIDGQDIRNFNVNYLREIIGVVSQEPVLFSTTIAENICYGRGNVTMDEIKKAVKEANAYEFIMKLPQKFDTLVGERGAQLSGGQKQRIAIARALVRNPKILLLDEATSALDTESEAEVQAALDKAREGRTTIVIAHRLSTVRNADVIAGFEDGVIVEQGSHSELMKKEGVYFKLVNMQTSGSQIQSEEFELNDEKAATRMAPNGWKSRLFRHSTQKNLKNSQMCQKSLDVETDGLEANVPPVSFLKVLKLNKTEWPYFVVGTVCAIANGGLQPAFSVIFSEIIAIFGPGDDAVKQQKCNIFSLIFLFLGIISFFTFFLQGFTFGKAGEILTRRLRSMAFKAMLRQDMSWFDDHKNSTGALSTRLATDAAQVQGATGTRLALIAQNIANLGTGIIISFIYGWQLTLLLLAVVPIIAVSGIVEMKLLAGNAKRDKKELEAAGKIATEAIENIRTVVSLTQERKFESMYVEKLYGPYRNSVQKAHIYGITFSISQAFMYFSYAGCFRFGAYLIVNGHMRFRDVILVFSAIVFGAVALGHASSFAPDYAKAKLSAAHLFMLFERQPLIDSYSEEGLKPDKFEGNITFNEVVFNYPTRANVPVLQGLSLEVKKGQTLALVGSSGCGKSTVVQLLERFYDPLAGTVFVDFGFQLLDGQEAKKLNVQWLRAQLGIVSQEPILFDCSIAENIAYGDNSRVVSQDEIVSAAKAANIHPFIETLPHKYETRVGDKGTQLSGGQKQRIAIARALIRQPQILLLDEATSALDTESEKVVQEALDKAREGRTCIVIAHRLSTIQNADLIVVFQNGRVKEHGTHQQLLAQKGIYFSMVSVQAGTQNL

For `Cc1cc(C)c(Oc2nc(-c3cncc(Cl)c3)ccc2S(=O)(=O)NC(c2ccccn2)C(F)(F)F)c(C)c1` (single isomer, unassigned) [Compound I-79], the EC50 on ABCB4 WT is not below 25 µM; on ABCD2 WT, 1 to 10 µM.
For the compound `Cc1cc(C)c(Oc2nc(-c3cncc(Cl)c3)ccc2S(=O)(=O)NC(c2ccccn2)C(F)(F)F)c(C)c1` (single isomer, unassigned) [Compound I-80], the EC50 was not below 25 µM at ABCB4 WT and 1 to 10 µM on ABCD2 WT.
For `Cc1cc(C)c(Oc2nc(-c3cncc(C(N)=O)c3)ccc2NS(C)(=O)=O)c(C2CC2)n1` [Compound I-1], the values for the EC50 at ABCB4 WT and on ABCD2 WT were not below 25 µM and 1 to 10 µM, respectively.
Taken in the same sequence, the figures for `Cc1cc(C)c(Oc2nc(-c3cn[nH]c3)ccc2NS(C)(=O)=O)c(C2CC2)c1` [Compound I-2] were not below 25 µM and 10 to 25 µM.
For `Cc1ccc(Oc2nc(-c3cncc(C#N)c3)ccc2NS(C)(=O)=O)c(C)n1` [Compound I-3] the same measures were less than 1 µM and 1 to 10 µM.
`Cc1cc(C)c(Oc2nc(-c3cncc(Cl)c3)ccc2N(C2CC2)S(C)(=O)=O)c(C)c1` [Compound I-42]: the EC50 is not below 25 µM on ABCB4 WT and 1 to 10 µM at ABCD2 WT.
Regarding `Cc1cc(C)c(Oc2nc(N3CC4(C3)CN(S(=O)(=O)C3CC3)C4)ccc2NS(C)(=O)=O)c(C)c1` [Compound I-43], the figures for the EC50 at ABCB4 WT and on ABCD2 WT were not below 25 µM and more than 25 µM, respectively.
`Cc1cc(C)c(Oc2nc(N3CCN(S(=O)(=O)C4CC4)CC3)ccc2NS(C)(=O)=O)c(C)c1` [Compound I-44]: the 50% effective concentration (EC50) at ABCB4 WT was not below 25 µM; on ABCD2 WT, 10 to 25 µM.
Turning to `Cc1cc(C)c(Oc2nc(-c3ccc(C#N)nc3)ccc2NS(C)(=O)=O)c(C)c1` [Compound I-45], the results for the EC50 at ABCB4 WT and on ABCD2 WT were not below 25 µM and less than 1 µM, respectively.
For `Cc1cc(C)c(Oc2nc(-c3cncc(Cl)c3)ccc2NS(C)(=O)=O)c(C)n1` [Compound I-46], the EC50 at ABCB4 WT was less than 25 µM; on ABCD2 WT, less than 1 µM.
As to `Cc1cc(C)c(Oc2nc(N3CCN(C(=O)C4CC4)CC3)ccc2NS(C)(=O)=O)c(C)c1` [Compound I-47], the EC50 on ABCB4 WT was less than 1 µM; on ABCD2 WT, 1 to 10 µM.
Consider `Cc1cc(C)c(Oc2nc(-c3cncc(Cl)c3)ccc2N(C)S(C)(=O)=O)c(C)c1` [Compound I-48], for which the EC50 at ABCB4 WT and at ABCD2 WT was less than 1 µM each time.
With `Cc1cc(C)c(Oc2nc(-c3cncc(Cl)c3)ccc2NS(=O)(=O)C2CC2)c(C)c1` [Compound I-49], the results for the EC50 at ABCB4 WT and on ABCD2 WT were less than 1 µM and more than 25 µM, respectively.
As for `CC(=O)NC1CN(c2ccc(NS(=O)(=O)c3cccnc3)c(Oc3c(C)cc(C)cc3C3CC3)n2)C1` [Compound I-50], the EC50 was 1 to 10 µM on ABCB4 WT and more than 25 µM at ABCD2 WT.
Take `COC1CC(S(=O)(=O)Nc2ccc(-c3cncc(Cl)c3)nc2Oc2c(C)cc(C)cc2C)C1` (centres unmarked) [Compound I-51]: the EC50 at ABCB4 WT is less than 1 µM; on ABCD2 WT, more than 25 µM.
For the compound `Cc1cc(C)c(Oc2nc(-c3cncc(Cl)c3)ccc2N(C)S(=O)(=O)c2cnn(C)c2)c(C2CC2)c1` [Compound I-52], the figures for the EC50 on ABCB4 WT and on ABCD2 WT were 1 to 10 µM and less than 1 µM, respectively.
For `Cc1cc(C)c(Oc2nc(-c3cncc(Cl)c3)ccc2N(C)S(=O)(=O)c2cccnc2)c(C2CC2)c1` [Compound I-53] the same measures were not below 25 µM and more than 25 µM.
Consider `Cc1cc(C)c(Oc2nc(-c3cncc(Cl)c3)ccc2NS(=O)(=O)c2cccnc2)c(C2CC2)c1` [Compound I-54], for which the EC50 at ABCB4 WT was not below 25 µM; on ABCD2 WT, 1 to 10 µM.
Regarding `Cc1cc(C)c(Oc2nc(-c3cncc(Cl)c3)ccc2NS(C)(=O)=O)c(C)c1` [Compound I-55], the figures for the EC50 on ABCB4 WT and on ABCD2 WT were not below 25 µM and less than 1 µM, respectively.
Regarding `Cc1cc(C)c(Oc2cc(-c3cncc(Cl)c3)ncc2NS(C)(=O)=O)c(C)c1` [Compound I-56], the EC50 at ABCB4 WT is not below 25 µM; at ABCD2 WT it was 1 to 10 µM.
In the case of `Cc1cc(C)c(Oc2nc(-c3cncc(Cl)c3)ccc2NS(C)(=O)=O)c(C2CC2)c1` [Compound I-57], the values for the EC50 on ABCB4 WT and on ABCD2 WT were less than 25 µM and less than 1 µM, respectively.
With `Cc1cc(C)c(Oc2nc(-c3cncc(Cl)c3)ccc2NS(=O)(=O)c2cnn(C)c2)c(C2CC2)c1` [Compound I-58], the EC50 was not below 25 µM at ABCB4 WT and more than 25 µM at ABCD2 WT.
As to `Cc1cc(C)c(Oc2cc(-c3cncc(Cl)c3)cnc2N(C)S(=O)(=O)c2cnn(C)c2)c(C)c1` [Compound I-59], the EC50 on ABCB4 WT was not below 25 µM; on ABCD2 WT, 1 to 10 µM.
For `Cc1cc(C)c(Oc2cc(-c3cncc(Cl)c3)cnc2NS(C)(=O)=O)c(C)c1` [Compound I-60], the EC50 at ABCB4 WT is not below 25 µM; at ABCD2 WT it was 1 to 10 µM.
Regarding `Cc1cc(C)c(Oc2cc(-c3cncc(Cl)c3)cnc2NS(=O)(=O)c2cnn(C)c2)c(C)c1` [Compound I-61], the EC50 was not below 25 µM on ABCB4 WT and 1 to 10 µM on ABCD2 WT.
Regarding `Cc1cc(C)c(Oc2nc(-c3cncc(Cl)c3)ccc2NS(=O)(=O)Cc2ccccn2)c(C)c1` [Compound I-62], the EC50 on ABCB4 WT was not below 25 µM; at ABCD2 WT, less than 1 µM.
As to `COc1ccc2nc[nH]c2c1S(=O)(=O)Nc1ccc(-c2cncc(Cl)c2)nc1Oc1c(C)cc(C)cc1C` [Compound I-63], the EC50 at ABCB4 WT is not below 25 µM; at ABCD2 WT, more than 25 µM.
Take `Cc1cc(C)c(Oc2nc(-c3cncc(Cl)c3)ccc2N(C)S(=O)(=O)Cc2ccccc2)c(C)c1` [Compound I-64]: the values for the EC50 on ABCB4 WT and at ABCD2 WT were less than 25 µM and 1 to 10 µM, respectively.
On to `Cc1cc(C)c(Oc2nc(-c3cncc(Cl)c3)ccc2NS(=O)(=O)Cc2ccccc2)c(C)c1` [Compound I-65], for which the EC50 was not below 25 µM at ABCB4 WT and more than 25 µM at ABCD2 WT.
Consider `Cc1cc(C)c(Oc2nc(-c3cncc(Cl)c3)ccc2N2CCCCS2(=O)=O)c(C)c1` [Compound I-66], for which the EC50 on ABCB4 WT is not below 25 µM; on ABCD2 WT it was 10 to 25 µM.
On to `Cc1cc(C)c(Oc2nc(-c3cncc(Cl)c3)ccc2N2CCCS2(=O)=O)c(C)c1` [Compound I-67], for which the EC50 at ABCB4 WT and at ABCD2 WT was 1 to 10 µM in each case.
As for `Cc1cc(C)c(Oc2nc(-c3cncc(Cl)c3)ccc2NS(=O)(=O)C(C)(C)C)c(C)c1` [Compound I-68], the EC50 is not below 25 µM at ABCB4 WT and more than 25 µM at ABCD2 WT.
Regarding `Cc1cc(C)c(Oc2nc(-c3cncc(Cl)c3)ccc2N(C)S(=O)(=O)c2cccnc2)c(C)c1` [Compound I-69], the values for the EC50 on ABCB4 WT and at ABCD2 WT were less than 25 µM and more than 25 µM, respectively.
With `Cc1cc(C)c(Oc2nc(-c3cncc(Cl)c3)ccc2N(C)S(=O)(=O)c2cnn(C)c2)c(C)c1` [Compound I-70], the figures for the EC50 on ABCB4 WT and on ABCD2 WT were not below 25 µM and less than 1 µM, respectively.
For the compound `Cc1cc(C)c(Oc2nc(-c3cncc(Cl)c3)ccc2NS(=O)(=O)c2cccnc2)c(C)c1` [Compound I-71], the EC50 on ABCB4 WT was not below 25 µM; at ABCD2 WT, less than 25 µM.
Taken in the same sequence, the figures for `Cc1cc(C)c(Oc2nc(-c3cncc(Cl)c3)ccc2NS(=O)(=O)c2cnn(C)c2)c(C)c1` [Compound I-72] were not below 25 µM and less than 1 µM.
In the case of `CNS(=O)(=O)c1ccc(N2CCN(C(=O)C3CC3)CC2)nc1Oc1c(C)cc(C)cc1C` [Compound I-73], the EC50 at ABCB4 WT was less than 1 µM; at ABCD2 WT, 1 to 10 µM.
As for `COC1CC(NS(=O)(=O)c2ccc(-c3cncc(Cl)c3)nc2Oc2c(C)cc(C)cc2C2CC2)C1` (centres unmarked) [Compound I-74], the results for the EC50 at ABCB4 WT and on ABCD2 WT were 1 to 10 µM and less than 25 µM, respectively.
Consider `Cc1cc(C)c(Oc2nc(-c3cncc(Cl)c3)ccc2S(=O)(=O)Nc2cnn(C)c2)c(C2CC2)c1` [Compound I-75], for which the EC50 on ABCB4 WT was 1 to 10 µM; on ABCD2 WT it was less than 25 µM.
With `Cc1cc(C)c(Oc2nc(-c3cncc(Cl)c3)ccc2S(=O)(=O)NCc2ccccn2)c(C2CC2)c1` [Compound I-76], the EC50 on ABCB4 WT and at ABCD2 WT was 1 to 10 µM in each case.
`CNS(=O)(=O)c1ccc(-c2cncc(Cl)c2)nc1Oc1c(C)cc(C)cc1C1CC1` [Compound I-77]: the results for the EC50 on ABCB4 WT and at ABCD2 WT were 1 to 10 µM and less than 1 µM, respectively.
For `COC1CC(NS(=O)(=O)c2ccc(-c3cncc(Cl)c3)nc2Oc2c(C)cc(C)cc2C)C1` (centres unmarked) [Compound I-78] the same measures were less than 25 µM and 1 to 10 µM.
Turning to `Cc1cc(C)c(Oc2nc(-c3cncc(Cl)c3)ccc2S(=O)(=O)N[C@H](c2ccccc2)C(F)(F)F)c(C)c1` [Compound I-81], the EC50 at ABCB4 WT was less than 25 µM; at ABCD2 WT, 1 to 10 µM.

The values are drawn from patent publication US20250228835A1, “PYRIDINYLOXYPYRIDINES AND RELATED COMPOUNDS AND THEIR USE IN TREATING MEDICAL CONDITIONS” (Rectify Pharmaceuticals, Inc., priority 2024, published 2025).
